Results from BindingDB's records for doi:10.3109/14756366.2012.723206 (Yanbian University College of Pharmacy, 2013).

Target: T1, Tyrosine-protein phosphatase non-receptor type 2 (Homo sapiens, UniProt P17706)
T1 sequence (P17706 whole entry): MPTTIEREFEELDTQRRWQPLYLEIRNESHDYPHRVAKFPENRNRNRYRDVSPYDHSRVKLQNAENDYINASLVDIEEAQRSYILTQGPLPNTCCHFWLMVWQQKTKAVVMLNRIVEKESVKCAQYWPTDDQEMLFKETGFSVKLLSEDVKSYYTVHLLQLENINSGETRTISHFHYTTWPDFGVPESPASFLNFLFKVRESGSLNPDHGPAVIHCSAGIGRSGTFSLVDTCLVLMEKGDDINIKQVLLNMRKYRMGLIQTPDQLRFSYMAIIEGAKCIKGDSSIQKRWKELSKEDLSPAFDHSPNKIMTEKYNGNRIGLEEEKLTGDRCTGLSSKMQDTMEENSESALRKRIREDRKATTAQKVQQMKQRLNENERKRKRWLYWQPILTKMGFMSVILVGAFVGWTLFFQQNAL
Assay: Enzymatic Assay
Conditions: pH 6.5; 30 °C

| SMILES | IC50 |
| --- | --- |
| O=C1CC(c2cccc(C(F)(F)F)c2)Oc2cc(O)cc(O)c21 (stereo not given) [PTP inhibitor, 4k] | 8.82 µM |

Target: T2, M-phase inducer phosphatase 2 (Homo sapiens, UniProt P30305)
T2 sequence (P30305 whole entry): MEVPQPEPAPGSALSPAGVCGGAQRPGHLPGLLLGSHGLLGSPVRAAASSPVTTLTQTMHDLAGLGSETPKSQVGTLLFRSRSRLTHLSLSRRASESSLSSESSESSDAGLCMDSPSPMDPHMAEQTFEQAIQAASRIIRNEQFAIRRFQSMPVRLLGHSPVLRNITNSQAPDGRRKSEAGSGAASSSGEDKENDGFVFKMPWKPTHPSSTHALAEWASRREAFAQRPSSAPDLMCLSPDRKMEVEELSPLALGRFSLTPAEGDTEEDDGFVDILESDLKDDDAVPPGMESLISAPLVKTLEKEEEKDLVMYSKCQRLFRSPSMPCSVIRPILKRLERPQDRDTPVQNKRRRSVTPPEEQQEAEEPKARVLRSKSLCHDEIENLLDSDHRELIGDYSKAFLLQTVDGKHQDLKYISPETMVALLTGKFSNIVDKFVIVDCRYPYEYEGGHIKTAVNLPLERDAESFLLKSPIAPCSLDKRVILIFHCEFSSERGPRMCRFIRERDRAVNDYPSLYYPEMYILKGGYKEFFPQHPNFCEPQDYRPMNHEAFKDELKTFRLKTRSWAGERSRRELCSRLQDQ
Assay: Enzymatic Assay
Conditions: pH 6.5; 30 °C

| SMILES | IC50 |
| --- | --- |
| O=C1CC(c2cccc(C(F)(F)F)c2)Oc2cc(O)cc(O)c21 (stereo not given) [PTP inhibitor, 4k] | 8.54 µM |

Target: T3, Tyrosine-protein phosphatase non-receptor type 1 (Homo sapiens, UniProt P18031)
T3 sequence (P18031 whole entry): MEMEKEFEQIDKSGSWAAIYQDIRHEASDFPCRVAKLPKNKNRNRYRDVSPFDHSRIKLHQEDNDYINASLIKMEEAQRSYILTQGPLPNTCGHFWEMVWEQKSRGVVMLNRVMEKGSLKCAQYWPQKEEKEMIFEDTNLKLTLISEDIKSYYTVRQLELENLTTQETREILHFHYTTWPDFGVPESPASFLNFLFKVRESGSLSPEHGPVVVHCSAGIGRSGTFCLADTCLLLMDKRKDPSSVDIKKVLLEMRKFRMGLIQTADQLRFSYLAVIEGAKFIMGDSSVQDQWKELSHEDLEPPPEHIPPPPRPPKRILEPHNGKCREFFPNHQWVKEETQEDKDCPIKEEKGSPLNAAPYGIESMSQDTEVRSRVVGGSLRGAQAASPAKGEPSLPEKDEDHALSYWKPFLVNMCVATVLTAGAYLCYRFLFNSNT
Assay: Enzymatic Assay
Conditions: pH 6.5; 30 °C
Procedure: Briefly, the enzymatic activity of the PTP1B catalytic domain was determinedat 30°C by monitoring the hydrolysis of pNPP. […] Assays were performed in a total volume of 100 μL containing 50 mmol/L 3-[N-morpholino]propane-sulfonic acid (MOPs), pH = 6.5, 2 mmol/L pNPP, and 30 nmol/L recombinant PTP1B, as well as the indicated concentrations of the inhibitor.

| SMILES | IC50 |
| --- | --- |
| O=C1CC(c2ccc(F)cc2)Oc2cc(O)cc(O)c21 (stereo not given) [PTP inhibitor, 4c] | 2.66 µM |
| O=C1CC(c2ccc(Cl)cc2Cl)Oc2cc(O)cc(O)c21 (stereo not given) [PTP inhibitor, 4g] | 2.4 µM |
| O=C1CC(c2ccccc2Br)Oc2cc(O)cc(O)c21 (stereo not given) [PTP inhibitor, 4h] | 4.9 µM |
| O=C1CC(c2ccccc2Cl)Oc2cc(O)cc(O)c21 (stereo not given) [PTP inhibitor, 4d] | 10.2 µM |
| O=C1CC(c2cccc(Br)c2)Oc2cc(O)cc(O)c21 (stereo not given) [PTP inhibitor, 4i] | 7.33 µM |
| O=C1CC(c2ccccc2F)Oc2cc(O)cc(O)c21 (stereo not given) [PTP inhibitor, 4a] | 9.06 µM |
| O=C1CC(c2ccccc2)Oc2cc(O)cc(O)c21 (stereo not given) [PTP inhibitor, 4l] | 36.7 µM |
| O=C1CC(c2ccc(Cl)cc2)Oc2cc(O)cc(O)c21 (stereo not given) [PTP inhibitor, 4f] | 3.6 µM |
| Cc1ccc(C2CC(=O)c3c(O)cc(O)cc3O2)cc1 (stereo not given) [PTP inhibitor, 4m] | 14.1 µM |
| O=C1CC(c2cccc(F)c2)Oc2cc(O)cc(O)c21 (stereo not given) [PTP inhibitor, 4b] | 7.98 µM |
| O=C1CC(c2ccc(Br)cc2)Oc2cc(O)cc(O)c21 (stereo not given) [PTP inhibitor, 4j] | 3.48 µM |
| O=C1CC(c2cccc(C(F)(F)F)c2)Oc2cc(O)cc(O)c21 (stereo not given) [PTP inhibitor, 4k] | 2.37 µM |
| O=C1CC(c2cccc(Cl)c2)Oc2cc(O)cc(O)c21 (stereo not given) [PTP inhibitor, 4e] | 4.18 µM |
